Read-outs that look alike come from different tables or passages of the source. Positions of bridges follow the written chain, without caps; N, C: chain ends. Non-standard residues stand in square brackets, D forms with d. Chains are numbered I, II in the order given. *: point of attachment. C18 diacid = O=C(O)CCCCCCCCCCCCCCCCC(=O)*; NMeY = CN[C@@H](Cc1ccc(O)cc1)C(=O)O; Aib = CC(C)(N)C(=O)O
What was measured:
human GLP-1R = biological target: T1, human GLP-1R (Homo sapiens, UniProt P43220); assay: Human GLP1R agonist activity, intracellular cAMP accumulation; assay type: cell-based; conditions: HEK-293T cells overexpressing human GLP-1R, 1 hr
T1 construct: HEK-293T cells overexpressing full-length human GLP-1R; FLAG (N); host or cells: HEK-293T
Outline: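 Frozen assay-ready cells washed and resuspended at 4×10^5 cells/mL in Krebs Ringer buffer, then incubated with compound 1 hr at room temperature in the dark. cAMP read by HTRF (anti-cAMP antibody, d2-cAMP tracer). Normalised to 1 nm GLP-1 (100%) and DMSO (0%).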

C57BL/6J mice = assay: Oral glucose tolerance test (OGTT); assay type: in vivo; conditions: 3 nmol/kg s.c., 24 hours before glucose loading
Outline: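 Peptide or vehicle given s.c. at 0.1, 0.3, 3 or 10 nmol/kg (peptide-dependent), 24 h before oral 50% dextrose at 5 ml/kg unless stated otherwise. Blood glucose read at 0, 15, 30 and 60 min. % inhibition = (1−(AUC cpd−AUC naïve)/(AUC veh−AUC naïve))×100.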

physchem = assay: physchem
Outline: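 3 mg of peptide treated with 100 μL portions of 200 mM phosphate buffer pH 7.4, sonicating/vortexing up to 1 min, with further buffer added until fully dissolved. Solubility then quantified by HPLC.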

[1] = read-out: Human GLP1R cAMP EC50, HEK293T

T1 sequence (P43220 24-463): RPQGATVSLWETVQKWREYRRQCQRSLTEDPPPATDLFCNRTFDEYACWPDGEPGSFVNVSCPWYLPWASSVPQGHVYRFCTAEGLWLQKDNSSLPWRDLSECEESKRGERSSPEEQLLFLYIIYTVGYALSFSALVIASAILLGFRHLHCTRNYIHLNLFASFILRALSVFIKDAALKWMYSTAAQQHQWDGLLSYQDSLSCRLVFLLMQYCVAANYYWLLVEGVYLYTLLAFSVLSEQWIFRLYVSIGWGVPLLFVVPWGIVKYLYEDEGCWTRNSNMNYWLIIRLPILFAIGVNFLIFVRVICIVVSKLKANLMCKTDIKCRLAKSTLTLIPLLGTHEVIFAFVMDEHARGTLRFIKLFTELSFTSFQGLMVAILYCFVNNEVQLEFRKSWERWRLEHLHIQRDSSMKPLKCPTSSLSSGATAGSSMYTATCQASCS

Compound	EC50 (human GLP-1R; [1]) [nM]	Oral Glucose Tolerance Test Percent decrease in blood glucose AUC (%) over 60 mins (C57BL/6J mice)	solubility (physchem; pH 7.4) [mg/mL]	solubility (physchem; pH 7.4, aqueous buffer) [mg/mL]	EC50 (human GLP-1R; Human GLP1R cAMP EC50, HEK293T (nM)) [nM]	solubility (physchem; pH 7.4, aqueous buffer, pH 7.4 Phosphate Buffer - Solubility, 200 mM Phosphate buffer pH 7.4) [mg/mL]	solubility (physchem; pH 7.4, solubility in phosphate buffer at pH 7.4, 200 mM phosphate buffer pH 7.4) [mg/mL]
CC[C@H](C)[C@H](NC(=O)[C@H](Cc1ccccc1)NC(=O)[C@@H](NC(=O)CNC(=O)[C@H](CCC(=O)O)NC(=O)C(C)(C)NC(=O)[C@H](Cc1ccc(O)cc1)NC)[C@@H](C)O)C(=O)N[C@@H](CO)C(=O)N[C@@H](CC(=O)O)C(=O)N[C@@H](Cc1ccc(O)cc1)C(=O)N[C@@H](CO)C(=O)N[C@H](C(=O)NC(C)(C)C(=O)N[C@@H](CC(C)C)C(=O)N[C@@H](CC(=O)O)C(=O)N[C@@H](CCCNC(=N)N)C(=O)N[C@@H](CCCCNC(=O)CNC(=O)CNC(=O)CNC(=O)CNC(=O)CNC(=O)CCCCCCCCCCCCCCCCC(=O)O)C(=O)N[C@@H](C)C(=O)N[C@@H](CCC(N)=O)C(=O)NC(C)(C)C(=O)N[C@@H](CC(=O)O)C(=O)N[C@@H](Cc1ccccc1)C(=O)N[C@H](C(=O)N[C@@H](CC(N)=O)C(=O)N[C@@H](Cc1c[nH]c2ccccc12)C(=O)N[C@@H](CC(C)C)C(=O)N[C@@H](CC(C)C)C(=O)N[C@@H](C)C(=O)N[C@@H](CCC(N)=O)C(=O)N[C@@H](CO)C(=O)N1CCC[C@H]1C(=O)NCC(=O)O)C(C)C)[C@@H](C)CC [Compound 88]	13.5	64% (3 nmol/kg)	≥ 15	≥ 30			
CC[C@H](C)[C@H](NC(=O)[C@H](CO)NC(=O)[C@H](Cc1ccc(O)cc1)NC(=O)[C@H](CC(=O)O)NC(=O)[C@H](CO)NC(=O)[C@@H](NC(=O)[C@H](Cc1ccccc1)NC(=O)[C@@H](NC(=O)CNC(=O)[C@H](CCC(=O)O)NC(=O)C(C)(C)NC(=O)[C@H](Cc1ccc(O)cc1)NC)[C@@H](C)O)[C@@H](C)CC)C(=O)N[C@@H](C)C(=O)N[C@@H](CCCCNC(=O)CNC(=O)CNC(=O)CNC(=O)CNC(=O)CNC(=O)CCCCCCCCCCCCCCCCC(=O)O)C(=O)N[C@@H](CC(=O)O)C(=O)N[C@@H](CCCNC(=N)N)C(=O)NC(C)(C)C(=O)N[C@@H](C)C(=O)N[C@@H](CCC(N)=O)C(=O)NC(C)(C)C(=O)N[C@@H](CC(N)=O)C(=O)N[C@@H](Cc1ccccc1)C(=O)N[C@H](C(=O)N[C@@H](CC(N)=O)C(=O)N[C@@H](Cc1c[nH]c2ccccc12)C(=O)N[C@@H](CC(C)C)C(=O)N[C@@H](CC(C)C)C(=O)N[C@@H](C)C(=O)N[C@@H](CCC(N)=O)C(=O)N[C@@H](CO)C(=O)N1CCC[C@H]1C(=O)NCC(=O)O)C(C)C [Compound 114]	11.7	50% (3 nmol/kg)	≥ 15	≥ 30			
CC[C@H](C)[C@H](NC(=O)[C@H](CO)NC(=O)[C@H](Cc1ccc(O)cc1)NC(=O)[C@H](CC(=O)O)NC(=O)[C@H](CO)NC(=O)[C@@H](NC(=O)[C@H](Cc1ccccc1)NC(=O)[C@@H](NC(=O)CNC(=O)[C@H](CCC(=O)O)NC(=O)C(C)(C)NC(=O)[C@H](Cc1ccc(O)cc1)NC)[C@@H](C)O)[C@@H](C)CC)C(=O)N[C@@H](C)C(=O)N[C@@H](CC(C)C)C(=O)N[C@@H](CC(=O)O)C(=O)N[C@@H](CCCNC(=N)N)C(=O)N[C@@H](CCCCNC(=O)CNC(=O)CNC(=O)CNC(=O)CNC(=O)CNC(=O)CCCCCCCCCCCCCCCCC(=O)O)C(=O)N[C@@H](C)C(=O)N[C@@H](CCC(N)=O)C(=O)NC(C)(C)C(=O)N[C@@H](CC(=O)O)C(=O)N[C@@H](Cc1ccccc1)C(=O)N[C@H](C(=O)N[C@@H](CCC(=O)O)C(=O)N[C@@H](Cc1c[nH]c2ccccc12)C(=O)N[C@@H](CC(C)C)C(=O)N[C@@H](CC(C)C)C(=O)N[C@@H](C)C(=O)N[C@@H](CCC(N)=O)C(=O)N[C@@H](CCCNC(=N)N)C(=O)NCC(=O)O)C(C)C [Compound 115]	40.7	40% (3 nmol/kg)	≥ 15	≥ 30			
CC[C@H](C)[C@H](NC(=O)[C@H](Cc1ccccc1)NC(=O)[C@@H](NC(=O)CNC(=O)[C@H](CCC(=O)O)NC(=O)C(C)(C)NC(=O)[C@@H](N)Cc1ccc(O)cc1)[C@@H](C)O)C(=O)N[C@@H](CO)C(=O)N[C@@H](CC(=O)O)C(=O)N[C@@H](Cc1ccc(O)cc1)C(=O)N[C@@H](CO)C(=O)N[C@H](C(=O)NC(C)(C)C(=O)N[C@@H](CCCCNC(=O)CNC(=O)CNC(=O)CNC(=O)CNC(=O)CNC(=O)CCCCCCCCCCCCCCCCC(=O)O)C(=O)N[C@@H](CC(=O)O)C(=O)N[C@@H](CCCNC(=N)N)C(=O)NC(C)(C)C(=O)N[C@@H](C)C(=O)N[C@@H](CCC(N)=O)C(=O)NC(C)(C)C(=O)N[C@@H](CC(=O)O)C(=O)N[C@@H](Cc1ccccc1)C(=O)N[C@H](C(=O)N[C@@H](CCC(=O)O)C(=O)N[C@@H](Cc1c[nH]c2ccccc12)C(=O)N[C@@H](CC(C)C)C(=O)N[C@@H](CC(C)C)C(=O)N[C@@H](C)C(=O)N[C@@H](CCC(N)=O)C(=O)N[C@@H](CCCNC(=N)N)C(=O)NCC(=O)O)C(C)C)[C@@H](C)CC [Compound 139]	8.91	93% (3 nmol/kg)	≥ 15	≥ 30			
CC[C@H](C)[C@H](NC(=O)[C@H](Cc1ccccc1)NC(=O)[C@@H](NC(=O)CNC(=O)[C@H](CCC(=O)O)NC(=O)C(C)(C)NC(=O)[C@@H](N)Cc1ccc(O)cc1)[C@@H](C)O)C(=O)N[C@@H](CO)C(=O)N[C@@H](CC(=O)O)C(=O)N[C@@H](Cc1ccc(O)cc1)C(=O)N[C@@H](CO)C(=O)N[C@H](C(=O)NC(C)(C)C(=O)N[C@@H](CCCCNC(=O)CNC(=O)CNC(=O)CNC(=O)CNC(=O)CNC(=O)CCCCCCCCCCCCCCCCC(=O)O)C(=O)N[C@@H](CC(=O)O)C(=O)N[C@@H](CCCNC(=N)N)C(=O)N[C@@H](C)C(=O)N[C@@H](C)C(=O)N[C@@H](CCC(N)=O)C(=O)NC(C)(C)C(=O)N[C@@H](CC(=O)O)C(=O)N[C@@H](Cc1ccccc1)C(=O)N[C@H](C(=O)N[C@@H](CCC(=O)O)C(=O)N[C@@H](Cc1c[nH]c2ccccc12)C(=O)N[C@@H](CC(C)C)C(=O)N[C@@H](CC(C)C)C(=O)N[C@@H](C)C(=O)N[C@@H](CCC(N)=O)C(=O)N[C@@H](CCCNC(=N)N)C(=O)NCC(=O)O)C(C)C)[C@@H](C)CC [Compound 145]	9.33	52% (3 nmol/kg)	≥ 15	≥ 30			
CC[C@H](C)[C@H](NC(=O)[C@H](CO)NC(=O)[C@H](Cc1ccc(O)cc1)NC(=O)[C@H](CC(=O)O)NC(=O)[C@H](CO)NC(=O)[C@@H](NC(=O)[C@H](Cc1ccccc1)NC(=O)[C@@H](NC(=O)CNC(=O)[C@H](CCC(=O)O)NC(=O)C(C)(C)NC(=O)[C@@H](N)Cc1ccc(O)cc1)[C@@H](C)O)[C@@H](C)CC)C(=O)N[C@@H](C)C(=O)N[C@@H](CCCCNC(=O)CNC(=O)CNC(=O)CNC(=O)CNC(=O)CNC(=O)CCCCCCCCCCCCCCCCC(=O)O)C(=O)N[C@@H](CC(=O)O)C(=O)N[C@@H](CCCNC(=N)N)C(=O)NC(C)(C)C(=O)N[C@@H](C)C(=O)N[C@@H](CCC(N)=O)C(=O)N[C@@H](C)C(=O)N[C@@H](CC(=O)O)C(=O)N[C@@H](Cc1ccccc1)C(=O)N[C@H](C(=O)N[C@@H](CCC(=O)O)C(=O)N[C@@H](Cc1c[nH]c2ccccc12)C(=O)N[C@@H](CC(C)C)C(=O)N[C@@H](CC(C)C)C(=O)N[C@@H](C)C(=O)N[C@@H](CCC(N)=O)C(=O)N[C@@H](CCCNC(=N)N)C(=O)NCC(=O)O)C(C)C [Compound 149]	15.8	13% (3 nmol/kg)	≥ 15	≥ 30			
I: H-[NMeY][Aib]EGTFISDYSIAKDR[Aib]AQ[Aib]DFVNWLLAQSPSSGAPPPS-OH / II: {C18 diacid}-PAPAPGG (amide I:14-II:C) [Compound 105]		82% (3 nmol/kg)			562	≥ 60	≥ 15

Reference: patent US20230143604A1, “QW DOSING OF GIP RECEPTOR AGONIST PEPTIDE COMPOUNDS AND USES THEREOF” (TAKEDA PHARMACEUTICAL COMPANY LIMITED, priority 2020, published 2023)
